What was measured:
[1] = Initial screening: effect of excipients on remdesivir solubility; type: physicochemical
[2] = Solubility of remdesivir in water in the presence of surfactants; type: physicochemical
Description: The effect of various surfactants on the solubility of remdesivir in water was also tested.

[3] = cited from earlier work

remdesivir
Solubility ([1]; in Benzyl Alcohol): ≥56 mg/mL | Solubility ([1]; in Ethanol): ≥21 mg/mL | Solubility ([1]; in N-methyl pyrrolidone): > 100 mg/mL | Solubility ([1]; in N-methyl-2-pyrrolidone (NMP)): ≥112 mg/mL | Solubility ([1]; in NMP + Ethanol): ≥226 mg/mL | Solubility ([1]; in PEG 300): ≥39 mg/mL | Solubility ([1]; in PEG 400): ≥16 mg/mL | Solubility ([1]; in PEG 400 + Glycerol (3:5)): 0.011 mg/mL | Solubility ([1]; in PEG 400 + Glycerol (3:10)): 0.0008 mg/mL | Solubility ([1]; in PEG 600): ≥6.2 mg/mL | Solubility ([1]; in PEG 1000): ≥6.3 mg/mL | Solubility ([1]; in Peppermint Oil): 15.9 mg/mL | Solubility ([1]; in Plasdone (PVP) + PEG 300): ≥66 mg/mL | Solubility ([1]; in Propylene Glycol): ≥29 mg/mL | Solubility ([1]; in Soluplus + Ethanol + Water): ≥34 mg/mL | Solubility ([1]; in Span 20): 0.006 mg/mL | Solubility ([1]; in Span 80): 0.3 mg/mL | Solubility ([1]; in low molecular weight polyethylene glycols (PEG 300 and 400) in the presence of low molecular weight PVP): over 50 mg/ml | Remdesivir Solubility ([2]; water with Kolliphor EL (Polyoxyl 35 Castor Oil; Cremophor) 0.10 % w/w): 0.020 mg/mL | Remdesivir Solubility ([2]; water with Poloxamer P407 0.07 % w/w): 0.006 mg/mL | Remdesivir Solubility ([2]; water with TWEEN 20 (Polysorbate 20) 0.16 % w/w): 0.016 mg/mL | Remdesivir Solubility ([2]; water with TWEEN 80 (Polysorbate 80) 0.30 % w/w): 0.033 mg/mL | solubility in water (in words) [3]: insoluble

Reference: patent US20250057860A1, “READY-TO-DILUTE FORMULATION” (priority 2021, published 2025)
